Calls of active or inactive are those of the source. The calls are words filed in the database; no cut-off is given here.
Assays:
[1] = target: T1, ATP-dependent translocase ABCB1 (Homo sapiens, UniProt P08183); assay: Inhibition of P-glycoprotein in human MCF7/ADR cells assessed as daunomycin IC50 at 100 uM after 2 hrs; assay type: cell-based; settings: nci/adr-res
NCI/ADR-RES = assay: Effect on P-glycoprotein expression in human MCF7/ADR cells at 100 uM after 2 hrs by Western blot analysis; assay type: functional, cell-based
[2] = Initial drug concentration in Sprague-Dawley rat blood at 5 mg/kg, iv; assay type: ADME, organism-based; design: dose 5 mg/kg, route intravenous
[3] = AUC (0 to t) in Sprague-Dawley rat at 5 mg/kg, iv; assay type: ADME, organism-based; design: dose 5 mg/kg, route intravenous; settings: plasma
[4] = Elimination half life in Sprague-Dawley rat at 5 mg/kg, iv; assay type: ADME, organism-based; design: dose 5 mg/kg, route intravenous; settings: in vivo, read-out: beta t1/2 (converted)
[5] = Elimination rate constant in Sprague-Dawley rat at 5 mg/kg, iv; assay type: ADME, organism-based; design: dose 5 mg/kg, route intravenous; settings: in vivo
Rattus norvegicus = assay: Absolute bioavailability in Sprague-Dawley rat at 5 mg/kg, iv; assay type: ADME, organism-based; settings: in vivo
[6] = Cmax in Sprague-Dawley rat at 15 mg/kg, po; assay type: ADME, organism-based; design: dose 15 mg/kg, route oral; settings: in vivo
[7] = Tmax in Sprague-Dawley rat at 15 mg/kg, po; assay type: ADME, organism-based; design: dose 15 mg/kg, route oral; settings: in vivo
[8] = AUC (0 to t) in Sprague-Dawley rat at 15 mg/kg, po; assay type: ADME, organism-based; design: dose 15 mg/kg, route oral; settings: plasma
[9] = Elimination half life in Sprague-Dawley rat at 15 mg/kg, po; assay type: ADME, organism-based; design: dose 15 mg/kg, route oral; settings: in vivo, read-out: beta t1/2 (converted)
[10] = Elimination rate constant in Sprague-Dawley rat at 15 mg/kg, po; assay type: ADME, organism-based; design: dose 15 mg/kg, route oral; settings: in vivo
[11] = Absolute bioavailability in Sprague-Dawley rat at 15 mg/kg, po; assay type: ADME, organism-based; settings: in vivo
A549 [12] = assay: Anticancer activity against human A549 cells xenografted in BALB/c athymic nude male mouse assessed as tumor growth inhibition rate at 5 mg/kg, po in presence of 40 mg/kg, po PTX administered on day 1, 5, 9 and 13 post tumor implantation; assay type: functional
Mus musculus [13] = assay: Toxicity in human A549 cells xenografted in BALB/c athymic nude male mouse assessed as maximum weight loss at 5 mg/kg, po in presence of 40 mg/kg, po PTX administered on day 1, 5, 9 and 13 post tumor implantation; assay type: organism-based; settings: in vivo
A549 [14] = assay: Anticancer activity against human A549 cells xenografted in BALB/c athymic nude male mouse assessed as mouse tumor growth inhibition rate at 10 mg/kg, po in presence of 40 mg/kg, po PTX administered on day 1, 5, 9 and 13 post tumor implantation; assay type: functional
Mus musculus [15] = assay: Toxicity in human A549 cells xenografted in BALB/c athymic nude male mouse assessed as maximum weight loss at 10 mg/kg, po in presence of 40 mg/kg, po PTX administered on day 1, 5, 9 and 13 post tumor implantation; assay type: organism-based; settings: in vivo
A549 [16] = assay: Anticancer activity against human A549 cells xenografted in BALB/c athymic nude male mouse assessed as mouse survival rate at 5 mg/kg, po in presence of 40 mg/kg, po PTX administered on day 1, 5, 9 and 13 post tumor implantation; assay type: functional
A549 [17] = assay: Anticancer activity against human A549 cells xenografted in BALB/c athymic nude male mouse assessed as mouse survival rate at 10 mg/kg, po in presence of 40 mg/kg, po PTX administered on day 1, 5, 9 and 13 post tumor implantation; assay type: functional
[18] = target: T1, ATP-dependent translocase ABCB1; assay: Inhibition of P-glycoprotein in human MCF7/ADR cells assessed as increase in [3H]-DNM accumulation at 100 uM after 2 hrs relative untreated control; assay type: cell-based; design: Activity: scale not given: the % may be the effect or the level left; settings: nci/adr-res
P-glycoprotein (ABCB1) = P-glycoprotein (ABCB1) (Homo sapiens, UniProt P08183); assay: (§1) Inhibition of P-glycoprotein in human MCF7/ADR cells assessed as reduction in [3H]-DNM efflux ratio at 100 uM after 1 hr relative untreated control; assay type: cell-based, NCI/ADR-RES; settings: MCF7/ADR cells (NCI/ADR-RES), probe [3H]-DNM, read-out: Activity
Sequence of P-glycoprotein (ABCB1) (P08183 whole entry): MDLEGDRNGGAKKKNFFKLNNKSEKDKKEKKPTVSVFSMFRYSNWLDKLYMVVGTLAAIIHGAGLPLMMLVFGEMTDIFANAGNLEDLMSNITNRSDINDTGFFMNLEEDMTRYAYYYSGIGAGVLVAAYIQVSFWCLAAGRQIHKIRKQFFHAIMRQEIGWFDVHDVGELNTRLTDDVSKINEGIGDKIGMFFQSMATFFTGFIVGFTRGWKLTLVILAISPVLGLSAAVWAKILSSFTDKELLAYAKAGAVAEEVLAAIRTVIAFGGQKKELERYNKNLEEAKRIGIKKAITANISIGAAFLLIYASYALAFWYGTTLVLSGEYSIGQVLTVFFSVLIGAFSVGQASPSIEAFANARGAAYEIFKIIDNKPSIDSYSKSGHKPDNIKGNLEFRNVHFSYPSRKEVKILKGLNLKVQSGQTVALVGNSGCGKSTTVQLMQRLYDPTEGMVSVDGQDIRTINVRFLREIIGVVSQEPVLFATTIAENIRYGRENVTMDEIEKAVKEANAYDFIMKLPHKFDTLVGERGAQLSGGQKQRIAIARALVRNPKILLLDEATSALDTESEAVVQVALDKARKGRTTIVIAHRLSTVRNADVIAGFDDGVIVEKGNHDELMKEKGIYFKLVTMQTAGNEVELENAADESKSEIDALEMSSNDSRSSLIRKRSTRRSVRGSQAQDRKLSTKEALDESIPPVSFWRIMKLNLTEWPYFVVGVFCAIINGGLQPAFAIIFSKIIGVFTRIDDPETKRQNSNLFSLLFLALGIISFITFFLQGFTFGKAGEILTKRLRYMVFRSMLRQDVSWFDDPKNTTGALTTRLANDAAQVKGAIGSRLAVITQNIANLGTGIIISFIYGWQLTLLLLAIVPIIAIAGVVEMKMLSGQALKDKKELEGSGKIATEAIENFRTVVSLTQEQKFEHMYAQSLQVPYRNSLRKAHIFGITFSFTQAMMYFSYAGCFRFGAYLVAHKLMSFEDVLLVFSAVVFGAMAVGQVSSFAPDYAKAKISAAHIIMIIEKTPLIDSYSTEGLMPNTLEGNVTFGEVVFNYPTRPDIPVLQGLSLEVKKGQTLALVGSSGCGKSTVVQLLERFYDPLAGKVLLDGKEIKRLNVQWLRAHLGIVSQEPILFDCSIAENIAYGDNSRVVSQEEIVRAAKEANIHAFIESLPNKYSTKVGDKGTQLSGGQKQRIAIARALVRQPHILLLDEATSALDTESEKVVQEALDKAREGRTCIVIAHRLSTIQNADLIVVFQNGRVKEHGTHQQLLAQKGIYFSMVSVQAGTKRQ

[19] = target: T1, ATP-dependent translocase ABCB1; assay: as §1; assay type: cell-based, NCI/ADR-RES; settings: nci/adr-res, 1 h, 100 µM

T1 sequence (P08183 whole entry): as above

Structure (SMILES): O=c1c2ccccc2oc2cc(OCC3CS3)cc(OCC3CS3)c12 (configuration not stated)
- inhibition (INH) [1]: Active

Structure (SMILES): O=c1c2ccccc2sc2cc(OCC3CS3)cc(O)c12 (configuration not stated)
- inhibition (INH) [1]: Active

Structure (SMILES): O=c1c2ccccc2sc2cc(OCC(O)CCl)cc(O)c12 (configuration not stated)
- Activity (NCI/ADR-RES): inactive
- C0 [2]: 44300 ng/mL
- AUC(0-t) [3]: 1250 ng·h/mL
- half-life [4]: 21 min
- k el [5]: 0.000569 s⁻¹
- F (Rattus norvegicus): 100%
- Cmax [6]: 49 ng/mL
- Tmax [7]: 12.6 min
- AUC(0-t) [8]: 23 ng·h/mL
- half-life [9]: 23.4 min
- k el [10]: 0.000539 s⁻¹
- bioavailability [11]: 0.6%
- TGI (A549 [12]): 61.6%
- Activity (Mus musculus [13]): 6.19%
- TGI (A549 [14]): 52.6%
- Activity (Mus musculus [15]): 3.52%
- Survival (A549 [16]): 80%
- Survival (A549 [17]): 100%
- inhibition (INH) [1]: Active
- Activity [18]: 707%
- inhibition at 1 h, 100 µM (P-glycoprotein (ABCB1)): 70.4%

Structure (SMILES): COc1cccc2c(=O)c3c(OCC4CS4)cc(OCC4CS4)cc3oc12 (configuration not stated)
- inhibition (INH) [1]: Active

Structure (SMILES): O=c1c2ccccc2sc2cc(OCC(S)CCl)cc(O)c12 (configuration not stated)
- inhibition (INH) [1]: Active

Structure (SMILES): COc1ccc(CCN(C)CCCC(C#N)(c2ccc(OC)c(OC)c2)C(C)C)cc1OC (configuration not stated) [VERAPAMIL]
- inhibition (INH) [1]: Active
- Activity [18]: 319%

Structure (SMILES): COc1cc(OCC(O)CCl)cc2oc3ccccc3c(=O)c12 (configuration not stated)
- Activity (NCI/ADR-RES): inactive
- inhibition (INH) [1]: Active
- inhibition (INH) [18]: Not Active
- inhibition (INH) [19]: Not Active

Structure (SMILES): O=c1c2ccccc2oc2cc(OCC(O)CO)cc(O)c12 (configuration not stated)
- inhibition (INH) [1]: Active

Structure (SMILES): COc1cccc2c(=O)c3c(O)cc(OCC4CS4)cc3oc12 (configuration not stated)
- inhibition (INH) [1]: Active

Structure (SMILES): COc1cccc2c(=O)c3c(O)cc(OCC(O)CCl)cc3oc12 (configuration not stated)
- inhibition (INH) [1]: Active

Structure (SMILES): COc1cccc2c(=O)c3c(O)cc(OCC(S)CCl)cc3oc12 (configuration not stated)
- inhibition (INH) [1]: Active

Structure (SMILES): O=c1c2ccccc2oc2cc(OCC(O)CCl)cc(O)c12 (configuration not stated)
- inhibition (INH) [1]: Active

Structure (SMILES): COc1cccc2c(=O)c3c(O)cc(OCC(O)CO)cc3oc12 (configuration not stated)
- inhibition (INH) [1]: Active
